Data: patent US10681909B2, “Herbicidal triazoles” (FMC Corporation, priority 2014, dated 2020)

Experiments:
ryegrass, Italian [1] = experiment: Test A preemergence; assay type: in vivo, Lolium multiflorum; conditions: 0 to 100 scale (0 no effect, 100 complete control)
Outline: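 Visual injury score, 0 (no effect) to 100 (complete control), taken about 10 d after treatment against untreated greenhouse controls. Chemicals formulated in non-phytotoxic solvent plus surfactant; preemergence by directed soil spray onto sown loam/sand, postemergence onto one- to two-leaf plants.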

wild mustard = experiment: Test D postemergence; assay type: in vivo, Sinapis arvensis; conditions: scale 0 to 100
From the text: (§1) Seeds of plant species selected from bluegrass (annual bluegrass, Poa annua), blackgrass (Alopecurus myosuroides), canarygrass (Phalaris minor), chickweed (common chickweed, Stellaria media), galium (catchweed bedstraw, Galium aparine), bromegrass, down (downy bromegrass, Bromus tectorum), Russian thistle (Salsola kali), field poppy (Papaver rhoeas), field violet (Viola arvensis), foxtail, green (green foxtail, Setaria viridis), deadnettle (henbit deadnettle, Lamium amplexicaule), ryegrass, Ital. (Italian ryegrass, Lolium multiflorum), kochia (Kochia scoparia), lambsquarters (Chenopodium album), oilseed rape (Brassica napus), pigweed (Amaranthus retroflexus), chamomile (scentless chamomile, Matricaria inodora), speedwell (bird's-eye speedwell, Veronica persica), barley, spring (spring barley, Hordeum vulgare), wheat, spring (spring wheat, Triticum aestivum), buckwheat, wild (wild buckwheat, Polygonum convolvulus), wild mustard (Sinapis arvensis), oat, wild (wild oat, Avena fatua), radish, wild (wild radish, Raphanus raphanistrum), […]), barley, winter (winter barley, Hordeum vulgare), and wheat, winter (winter wheat, Triticum aestivum) were planted into a silt loam soil and treated preemergence with test chemicals formulated in a non-phytotoxic solvent mixture which included a surfactant. At the same time, these species were planted in pots containing Sunshine Redi-Earth® planting medium comprising spaghnum peat moss, vermiculite, starter nutrients and dolomitic limestone and treated with postemergence applications of the test chemicals formulated in the same manner. Plants ranged in height from 2 to 18 cm (1- to 4-leaf stage). Treated plants and controls were maintained in a controlled growth environment for 14 to 21 d after which time all species were compared to controls and visually evaluated. […] A dash (-) response means no test result.

wheat = experiment: Test A preemergence; assay type: in vivo, Triticum aestivum; conditions: Triticum aestivum, pre-emergence, 240 h, 0 to 100 scale (0 no effect, 100 complete control), read-out: Plant response rating, Wheat; for plant injury at 125 g/ha: 125 g ai/ha; for plant injury at 500 g/ha: 500 g ai/ha, approx. 10 d
Outline: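 Pre- and postemergence spray tests in a loam soil–sand mixture: seeded soil received a directed spray, while established seedlings 2–10 cm high at the one- to two-leaf stage were treated over the top. Compounds were carried in non-phytotoxic solvent with surfactant.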

morningglory = experiment: Test C preemergence; assay type: in vivo, Ipomoea coccinea; conditions: for Plant response rating (scale of 0 to 100 where 0 is no effect and 100 is complete control): Morningglory, preemergence; for Morningglory plant response rating (0 to 100): Preemergence, visual rating after 13 to 15 d
From the text: (§2) Seeds of plant species selected from blackgrass (Alopecurus myosuroides), ryegrass, Italian (Italian ryegrass, Lolium multiflorum), wheat (winter wheat, Triticum aestivum), galium (catchweed bedstraw, Galium aparine), corn (Zea mays), crabgrass, large (large crabgrass, Digitaria sanguinalis), foxtail, giant, (giant foxtail, Setaria faberii), johnsongrass (Sorghum halepense), lambsquarters (Chenopodium album), morningglory (Ipomoea coccinea), nutsedge, yellow (yellow nutsedge, Cyperus esculentus), pigweed (Amaranthus retroflexus), ragweed (common ragweed, Ambrosia elatior), soybean (Glycine max), barnyardgrass (Echinochloa crus-galli), oilseed rape (Brassica napus), waterhemp (common waterhemp, Amaranthus rudis), and velvetleaf (Abutilon theophrasti) were planted into a blend of loam soil and sand and treated preemergence with test chemicals formulated in a non-phytotoxic solvent mixture which included a surfactant. At the same time, plants selected from these crop and weed species and also chickweed (common chickweed, Stellaria media), oat, wild (wild oat, Avena fatua), and kochia (Kochia scoparia), were planted in pots containing Sunshine Redi-Earth® planting medium comprising spaghnum peat moss, vermiculite, starter nutrients and dolomitic limestone and treated with postemergence applications of test chemicals formulated in the same manner. Plants ranged in height from 2 to 18 cm (1- to 4-leaf stage) for postemergence treatments. […] A dash (-) response means no test result.

chickweed = experiment: Test D preemergence; assay type: in vivo, Stellaria media; conditions: for Plant response rating: Chickweed: scale 0 to 100
From the text: as §1

nutsedge, yellow = experiment: Test C preemergence; assay type: in vivo, Cyperus esculentus; conditions: for Plant response rating (scale of 0 to 100 where 0 is no effect and 100 is complete control): Nutsedge, Yellow, preemergence; for Nutsedge, Yellow plant response rating (0 to 100): Preemergence, visual rating after 13 to 15 d
From the text: as §2

ryegrass, Ital. = experiment: Test D postemergence; assay type: in vivo, Lolium multiflorum; conditions: scale 0 to 100
From the text: as §1

blackgrass = experiment: Test D preemergence; assay type: in vivo, Alopecurus myosuroides; conditions: for Plant response rating: Blackgrass: scale 0 to 100
From the text: as §1

ryegrass, Italian [2] = experiment: Test C preemergence; assay type: in vivo, Lolium multiflorum; conditions: for Ryegrass, Italian plant response rating (0 to 100): Preemergence, visual rating after 13 to 15 d; for Plant response rating (scale of 0 to 100 where 0 is no effect and 100 is complete control): Ryegrass, Italian, preemergence
From the text: as §2

[3] = 16 g ai/ha, 0 is no effect, 100 is complete control

| Structure (SMILES) | Plant response rating, Ryegrass, Italian (ryegrass, Italian [1]; 125 g ai/ha) | Plant response rating: Mustard, Wild (wild mustard; 31 g ai/ha) | Plant response rating: Mustard, Wild (wild mustard; 62 g ai/ha) | Plant response rating: Mustard, Wild (wild mustard; 125 g ai/ha) | Plant response rating (scale of 0 to 100 where 0 is no effect and 100 is complete control) (morningglory; 125 g ai/ha) | Plant response rating (scale of 0 to 100 where 0 is no effect and 100 is complete control) (morningglory; 250 g ai/ha) | Morningglory plant response rating (0 to 100) (morningglory; 31 g ai/ha) | Morningglory plant response rating (0 to 100) (morningglory; 62 g ai/ha) | Plant response rating: Chickweed (chickweed; 31 g ai/ha) | Plant response rating: Chickweed (chickweed; 62 g ai/ha) | Plant response rating: Chickweed (chickweed; 125 g ai/ha) | Plant response rating (scale of 0 to 100 where 0 is no effect and 100 is complete control) (nutsedge, yellow; 250 g ai/ha) | Nutsedge, Yellow plant response rating (0 to 100) (nutsedge, yellow; 31 g ai/ha) | Nutsedge, Yellow plant response rating (0 to 100) (nutsedge, yellow; 62 g ai/ha) | Plant response rating: Ryegrass, Ital. (ryegrass, Ital.; 31 g ai/ha) | Plant response rating: Ryegrass, Ital. (ryegrass, Ital.; 62 g ai/ha) | Plant response rating: Ryegrass, Ital. (ryegrass, Ital.; 125 g ai/ha) | Plant response rating: Blackgrass (blackgrass; 31 g ai/ha) | Plant response rating: Blackgrass (blackgrass; 62 g ai/ha) | Plant response rating: Blackgrass (blackgrass; 125 g ai/ha) | other results |
| --- | --- | --- | --- | --- | --- | --- | --- | --- | --- | --- | --- | --- | --- | --- | --- | --- | --- | --- | --- | --- | --- |
| CCOc1nc(-c2ccc(Cl)cc2)nn1Cc1ccnc(C(F)(F)F)c1 [Compound 26] | 100 |  |  |  |  |  |  |  |  |  |  |  |  |  |  |  |  |  |  |  | Plant response rating, Ryegrass, Italian (ryegrass, Italian [1]; 31 g ai/ha): 40 |
| CCOc1nc(-c2ccc(F)cc2)nn1Cc1ccnc(C(F)(F)F)c1 [Compound 8, 4-[[5-ethoxy-3-(4-fluorophenyl)-1H-1,2,4-triazol-1-yl]methyl]-2-(trifluoromethyl)pyridine] |  | 100 | 100 | 100 | 98 | 100 | 85 | 100 | 100 | 100 | 100 | 80 | 10 | 40 | 35 | 35 | 55 | 65 | 70 | 100 | Plant response rating: Mustard, Wild (wild mustard; 250 g ai/ha): 100; plant injury at 125 g/ha (wheat): 80%; plant injury at 500 g/ha (wheat): 100%; Plant response rating: Chickweed (chickweed; 250 g ai/ha): 100; Plant response rating (scale of 0 to 100 where 0 is no effect and 100 is complete control) (nutsedge, yellow; 125 g ai/ha): 55; Plant response rating: Ryegrass, Ital. (ryegrass, Ital.; 250 g ai/ha): 55; Plant response rating: Blackgrass (blackgrass; 250 g ai/ha): 100; Ryegrass, Italian plant response rating (0 to 100) (ryegrass, Italian [2]; 31 g ai/ha): 50; Ryegrass, Italian plant response rating (0 to 100) (ryegrass, Italian [2]; 62 g ai/ha): 80; Plant response rating (scale of 0 to 100 where 0 is no effect and 100 is complete control) (ryegrass, Italian [2]; 125 g ai/ha): 90; Plant response rating (scale of 0 to 100 where 0 is no effect and 100 is complete control) (ryegrass, Italian [2]; 250 g ai/ha): 90 |
| COc1nc(-c2ccc(C(F)(F)F)cc2)nn1Cc1ccnc(C(F)(F)F)c1 [Compound 25] | 50 |  |  |  |  |  |  |  |  |  |  |  |  |  |  |  |  |  |  |  | Plant response rating, Ryegrass, Italian (ryegrass, Italian [1]; 31 g ai/ha): 0 |
| COc1nc(-c2ccccc2)nn1Cc1ccnc(C(F)(F)F)c1 [Compound 32] | 40 |  |  |  | 5 | 45 | 0 | 5 |  |  |  | 20 | 0 | 0 |  |  |  |  |  |  | Plant response rating (scale of 0 to 100 where 0 is no effect and 100 is complete control) (nutsedge, yellow; 125 g ai/ha): 5; Ryegrass, Italian plant response rating (0 to 100) (ryegrass, Italian [2]; 31 g ai/ha): 0; Ryegrass, Italian plant response rating (0 to 100) (ryegrass, Italian [2]; 62 g ai/ha): 0; Plant response rating (scale of 0 to 100 where 0 is no effect and 100 is complete control) (ryegrass, Italian [2]; 125 g ai/ha): 0; Plant response rating (scale of 0 to 100 where 0 is no effect and 100 is complete control) (ryegrass, Italian [2]; 250 g ai/ha): 10; Plant response rating, Ryegrass, Italian (ryegrass, Italian [1]; 500 g ai/ha): 60 |
| CCc1nc(-c2ccc(C(F)(F)F)cc2)nn1Cc1ccnc(C(F)(F)F)c1 [Compound 1, 4-[[5-ethyl-3-[4-(trifluoromethyl)phenyl]-1H-1,2,4-triazol-1-yl]methyl]-2-(trifluoromethyl)pyridine] |  | 100 | 100 | 100 | 55 | 90 | 20 | 55 | 90 | 100 | 100 | 15 | 0 | 5 | 10 | 15 | 20 | 15 | 35 | 35 | Plant response rating: Mustard, Wild (wild mustard; 250 g ai/ha): 100; plant injury at 125 g/ha (wheat): 20%; plant injury at 500 g/ha (wheat): 30%; Plant response rating: Chickweed (chickweed; 250 g ai/ha): 100; Plant response rating: Ryegrass, Ital. (ryegrass, Ital.; 250 g ai/ha): 35; Plant response rating: Blackgrass (blackgrass; 250 g ai/ha): 65; Ryegrass, Italian plant response rating (0 to 100) (ryegrass, Italian [2]; 31 g ai/ha): 5; Ryegrass, Italian plant response rating (0 to 100) (ryegrass, Italian [2]; 62 g ai/ha): 10; Plant response rating (scale of 0 to 100 where 0 is no effect and 100 is complete control) (ryegrass, Italian [2]; 125 g ai/ha): 90 |
| CCCOc1nc(-c2ccccc2)nn1Cc1ccnc(C(F)(F)F)c1 [Compound 33] | 30 |  |  |  |  |  |  |  |  |  |  |  |  |  |  |  |  |  |  |  | Plant response rating, Ryegrass, Italian (ryegrass, Italian [1]; 500 g ai/ha): 60 |
| COc1nc(-c2ccc(Cl)cc2)nn1Cc1ccnc(C(F)(F)F)c1 [Compound 28] | 20 | 100 | 100 | 100 |  |  |  |  | 70 | 70 | 90 |  |  |  | 20 | 30 | 45 | 30 | 50 | 50 | Plant response rating: Mustard, Wild (wild mustard; 16 g ai/ha): 90; Plant response rating (0 to 100), Chickweed (chickweed; [3]): 65; Plant response rating: Ryegrass, Ital. (ryegrass, Ital.; 16 g ai/ha): 20; Plant response rating (0 to 100), Blackgrass (blackgrass; [3]): 30; Plant response rating, Ryegrass, Italian (ryegrass, Italian [1]; 500 g ai/ha, approx. 10 d): 90 |
